The values below come from PMC8087809 (Cell Death & Disease, 2021).

One may read the IC50 as the concentration at which inhibition is half-maximal.

SMILES strings stand for the structures.

Data set [1] has as its system RPMI-8226 BTZ-DR cells. The data set is described as follows: Annexin V flow cytometry in bortezomib-resistant cells. In kind it is cell-based, human. How it is done: (§1) Cell viability was detected by Cell Counting Kit-8 (CCK-8) (Dojindo Laboratories, Japan). MM cells were seeded on 96-well plates and placed in an incubator for 24 h. After being treated with drugs for another 72 h, cell viability was examined using the CCK-8 reagent. The CellTiter-Glo Luminescent Cell Viability Assay Kit (Promega, USA) was used to determine the viability of CD138^+ cells and PBMCs. For flow cytometry, MM cells were seeded in 6-well plates and placed in an incubator for 24 h. Then, the MM cells were incubated with drugs for another 24 h and collected for flow cytometry analysis. The cell cycle was examined by flow cytometry using a propidium iodide (PI) staining assay kit (BD Biosciences, USA). Cell apoptosis was detected by flow cytometry using the Annexin V/PI Kit (BD Biosciences, USA).
It is known that drug resistance limits the application of proteasome inhibitors in clinical treatment.
(In general: Flow cytometry measures light scatter and fluorescence of single cells or particles in a stream.)

The test system of data set [2] is MM patient-derived CD138+ cells. The data set is described as follows: Viability of MM patient-derived BM CD138+ cells. The following applies: Homo sapiens, primary MM cell. In kind it is cell-based. How it is done: Human MM.1S (dexamethasone-sensitive), MM.1R (dexamethasone-resistant), ARP1, and RPMI-8226 MM cell lines were obtained from American Type Culture Collection (ATCC, Rockville, USA) and cultured in RPMI-1640 medium (Gibco-BRL, USA) supplemented with 10% fetal bovine serum (Gibco, USA) and 1% penicillin/streptomycin (Gibco, USA). All the cells are maintained in 5% CO2 at 37 °C and have been tested for mycoplasma contamination. Peripheral blood mononuclear cells (PBMCs) were collected from healthy volunteers. BM mononuclear cells and PBMCs from MM patients were isolated by Ficoll-Hypaque density-gradient separation. CD138^+ cells were isolated from BM mononuclear cells of MM patients using CD138^+ Micro Beads and the Auto MACS magnetic cell sorter (Miltenyi Biotech, Germany). All primary samples were obtained with informed consent from patients with MM or healthy donors according to the Declaration of Helsinki. This study was approved by the Review Committee of the First Affiliated Hospital of Nanjing Medical University.
as §1
(§2) The Cell Counting Kit-8 (CCK-8) assay was used for cell viability assessment. CCK-8 provided a highly water-soluble tetrazole salt, WST-8, which would produce a water-soluble orange formazan in the presence of dehydrogenase derived from living cells. The OD value was detected at 450 nm with a microplate analyzer to indirectly reflect the number of living cells. […] Among the four patients, patients 1 (Fig. 2E), 2 (Fig. 2F), and 3 (Fig. 2G) were newly diagnosed, and patient 4 (Fig. 2H) had experienced relapse after prior therapies.

Data set [3] concerns C57BL/6 mice. Description: Cardiotoxicity in C57BL/6 mice (echocardiography, serum enzymes, histopathology). In kind it is in vivo, mouse. The conditions noted are these: 8 mg/kg i.p. every 2 days for 1 week. The procedure:
On day 7, the mice were sacrificed after an echocardiography test to harvest the serum for biochemical estimations. Biochemical estimations, including alanine aminotransferase (ALT), aspartate transaminase (AST), lactic dehydrogenase (LDH), creatine kinase-MB (CK-MB), and creatine kinase (CK), were tested using an autoanalyzer (Siemens, USA). Freshly harvested cardiac tissue was fixed in 4% buffered formalin solution for 24 h and embedded in paraffin wax. Sections ([…] thick) were obtained from each sample and stained with H&E. Histologic observation was performed with a Nikon i55 optical microscope (Nikon Corporation, Japan).
In addition, CT-L activity recovered in a time-dependent manner, as previously discovered in vitro (Fig. 7B). […] The echocardiographic analysis was performed at baseline (day 0) and endpoint (day 7) (Fig. 7D). […] We also examined the levels of CK, CK-MB, LDH, ALT, and AST in the blood serum from the treated mice.

Data set [4] concerns proteasome CT-L activity in MM.1S cells. The data set is described as follows: Proteasome-Glo cell-based assay, CT-L activity in MM.1S cells. The following applies: read-out: IC50 of cellular proteasome CT-L activity, treated 1 h.
Description: (§3) In vitro, the 20S proteasome activity of cells was detected by using the Proteasome-Glo Assay (Promega, USA) either after drug treatment for 4, 24, or 48 h in fresh medium.
(§4) Proteasome activity was measured by the Proteasome-Glo cell-based assay.
Data set [5] deals with proteasome CT-L activity in RPMI-8226 cells. Description: Proteasome-Glo cell-based assay, CT-L activity in RPMI-8226 cells. The conditions noted are these: read-out: IC50 of cellular proteasome CT-L activity, treated 1 h.
Description: as §3, §4
Data set [6] deals with ARP1 xenografts. Description: ARP1 xenograft in BALB/c nude mice. In kind it is in vivo, mouse. The following applies: i.v. 4 mg/kg twice a week. The procedure:
BALB/c nude mice (male, 4–6 weeks old) were purchased from Ziyuan Co., Ltd. (Hangzhou, China). ARP1 cells (1 × 10^6 cells in 100 μl PBS) were injected subcutaneously into the hindquarters of each mouse. […] All mice were observed every 2 days for at least 7 weeks. Tumor growth was assessed by calculating volume according to the following equation: volume = a × b^2/2, where a is the widest length and b is the perpendicular diameter. On the appointed day, fifteen tumor tissue samples were removed from the mice for hematoxylin and eosin (H&E) staining and stained with Ki67 and CD138 antibodies. Investigators were blinded to the group allocation during measuring tumor size, weight, and performing staining. All animal procedures were approved by the Institutional Review Board of the College of Life Science, Nanjing Normal University (Approval No. IACUC-20200506).
We next validated the anti-tumor role of D395 in vivo. Human MM cell line ARP1 (1 × 10^6 cells per mouse) were injected subcutaneously into BALB/c nude mice. […] The medication was given twice a week. Tumor size was measured every 3 days (Fig. 5A). […] On the endpoint day, all the mice were sacrificed, and tumors were collected (Fig. 5B, C). […] Tumor tissues were sampled for immunohistochemistry. The tissues were stained for Ki67, a cell proliferation marker, to show tumor growth (Fig. 5E).

The test system of data set [7] is MM.1S cells. The data set is described as follows: CCK-8 cell viability, MM.1S. In kind it is cell-based. The conditions noted are these: Homo sapiens, MM1.S, 72h. How it is done: as §1, §2
Data set [8] concerns six non-proteasomes. Description: Non-proteasome substrate-based assay (six non-proteasomes).
Description: A standard substrate-based assay of non-proteasome was performed as described (GenScript, China)[19].
Data set [9] relates to NF-κB activity in NF-κB-luc HEK293T cells. Description: NF-κB luciferase reporter assay, TNF-α stimulated. The conditions noted are these: Homo sapiens, HEK-293T, read-out: IC50 of NF-κB luciferase activity.
Description: The plasmids pcDNA3.1-(+)-NF-κB and pcDNA3.1-(+)-Renilla were mixed with Lipofectamine 2000 (Invitrogen, USA) and then transfected into HEK293T cells (Institute of Biochemistry and Cell Biology, China). […] The activity of NF-κB was examined by the Dual-Luciferase® Reporter Assay System (Promega, USA) as previously described[22].
Activation of NF-κB was determined by luciferase reporter gene assay using stably transfected NF-κB-luc HEK293T cells. The NF-κB signaling pathway was activated by TNF-α stimulation.
Data set [10] concerns ARP1 cells. Description: CCK-8 cell viability, ARP1. In kind it is cell-based. The following applies: Homo sapiens, ARP-1; ARP1, 72h. The procedure: as §1, §2
Data set [11] deals with proteasome CT-L activity in MM.1R cells. Description: Proteasome-Glo cell-based assay, CT-L activity in MM.1R cells. The conditions noted are these: read-out: IC50 of cellular proteasome CT-L activity, treated 1 h.
Description: as §3, §4
Data set [12] concerns RPMI-8226 cells. Description: CCK-8 cell viability, RPMI-8226. In kind it is cell-based. The following applies: Homo sapiens; RPMI-8226, 72h. The procedure: as §1, §2
In data set [13] the test system is MM patients. The conditions noted are these: carfilzomib-treated MM patients ref 13, 14; cited from earlier work.
Data set [14] deals with MM.1R cells. Description: CCK-8 cell viability, MM.1R. The following applies: Homo sapiens, 72h. In kind it is cell-based. The procedure:
as §1, §2

The target in data set [15] is T1, hERG channels (Homo sapiens, UniProt Q12809).
T1 construct: expressed in transfected cells; host or cells: HEK293T
Description: hERG whole-cell patch-clamp, tail current. In kind it is cell-based. The procedure:
The activation of the hERG pathway was detected by the whole-cell patch-clamp technique at room temperature (22 ± 1 °C) using an AXON 200B amplifier through a digitizer (DigiData 1440A, Molecular Devices, USA) controlled by pClamp software (v10.0) as previously described.
Human ether-à-go-go-related gene (hERG) K^+ channels are vital in cardiac repolarization[28],[29]. Drug cardiotoxicity can be partially attributed to hERG channel dysfunction that leads to long QT syndrome and ventricular action potential delay. […] The real-time current was measured during drug treatment. Figure 8A presents the command waveform of the tail-current protocol under voltage-clamp mode.
On the technique in general: Block of hERG is tested as a sign of cardiac risk.

T1 sequence (Q12809 whole entry): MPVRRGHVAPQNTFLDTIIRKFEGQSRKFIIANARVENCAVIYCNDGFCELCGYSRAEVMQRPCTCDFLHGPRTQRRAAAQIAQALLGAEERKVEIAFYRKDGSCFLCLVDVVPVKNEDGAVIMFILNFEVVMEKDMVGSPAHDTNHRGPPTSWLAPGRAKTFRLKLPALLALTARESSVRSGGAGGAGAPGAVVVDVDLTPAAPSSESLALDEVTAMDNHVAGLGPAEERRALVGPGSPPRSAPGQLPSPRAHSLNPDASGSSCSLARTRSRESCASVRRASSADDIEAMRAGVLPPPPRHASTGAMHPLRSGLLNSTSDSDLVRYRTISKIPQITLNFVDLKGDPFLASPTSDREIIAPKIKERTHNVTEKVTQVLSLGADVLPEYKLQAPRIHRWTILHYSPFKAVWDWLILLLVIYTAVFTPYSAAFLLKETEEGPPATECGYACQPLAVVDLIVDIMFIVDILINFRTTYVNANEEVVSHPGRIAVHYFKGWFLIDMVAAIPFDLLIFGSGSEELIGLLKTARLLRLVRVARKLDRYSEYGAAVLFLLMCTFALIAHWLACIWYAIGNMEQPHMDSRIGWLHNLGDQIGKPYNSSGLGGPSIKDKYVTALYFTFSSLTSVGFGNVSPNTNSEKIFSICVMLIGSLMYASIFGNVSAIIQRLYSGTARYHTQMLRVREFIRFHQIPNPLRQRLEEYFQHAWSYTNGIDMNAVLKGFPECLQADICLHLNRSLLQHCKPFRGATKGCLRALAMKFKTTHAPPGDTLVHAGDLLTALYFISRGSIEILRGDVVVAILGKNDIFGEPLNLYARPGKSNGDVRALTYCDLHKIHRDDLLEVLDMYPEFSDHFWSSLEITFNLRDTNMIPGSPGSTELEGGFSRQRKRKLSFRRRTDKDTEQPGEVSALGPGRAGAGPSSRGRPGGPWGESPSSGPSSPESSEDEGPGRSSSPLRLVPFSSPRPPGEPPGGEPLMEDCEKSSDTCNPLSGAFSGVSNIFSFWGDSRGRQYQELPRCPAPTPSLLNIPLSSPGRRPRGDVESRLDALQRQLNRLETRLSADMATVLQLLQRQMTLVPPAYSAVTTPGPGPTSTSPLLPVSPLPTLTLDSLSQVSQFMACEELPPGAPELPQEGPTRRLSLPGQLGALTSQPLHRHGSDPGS

In the case of `CC(C)C[C@H](NC(=O)[C@H](Cc1ccccc1)NC(=O)c1cnccn1)B(O)O` [bortezomib, Bortezomib], in data set [1], the “Apoptotic population / cell death” value is “lower than that of the RPMI-8226 WT group”.

In the case of `CC(C)C[C@H](NC(=O)[C@H](CCc1ccccc1)NC(=O)CN1CCOCC1)C(=O)N[C@@H](Cc1ccccc1)C(=O)N[C@@H](CC(C)C)C(=O)[C@@]1(C)CO1` [Carfilzomib], the IC50 is 56.5 ± 2.5 nM in data set [2] (24 h, patient 1 (newly diagnosed)); 354 ± 19.4 nM in [2] (24 h, patient 2 (newly diagnosed)); 444 ± 48 nM in data set [2] (24 h, patient 3 (newly diagnosed)); 38 ± 5.8 nM in data set [2] (24 h, patient 4 (relapsed)); 339 ± 22.8 nM in [2] (36 h, patient 2 (newly diagnosed)); 288 ± 19.5 nM in [2] (36 h, patient 3 (newly diagnosed)). For the same molecule, the concentration for half-maximal inhibition (IC50) in data set [4] was 13.8 nM; in data set [5], 25.8 nM; in data set [7], 7 ± 0.9 nM; in data set [9], 35.7 nM; in [10], 35.6 ± 5.1 nM; in [11], 18.1 nM. The figures for the IC50 in data set [12], in [14] and in data set [15] were 13.5 ± 1.9 nM, 11 ± 0.9 nM and 25700 nM, respectively. For the same molecule, in data set [3], the “Heart histological analysis (H&E)” value was “myocardial degeneration and myocardial fiber damage with cytoplasmic vacuoles”. The “FS% and EF% (echocardiography)” value in data set [3] (day 7) was “the FS% and EF% decreased in both the carfilzomib and D395 groups”. In data set [3] (day 7), the “Serum CK-MB and LDH levels” value is “increased in the carfilzomib group”. Moreover, the “LVEDD, LVESD, LVEDV, LVESV” value in [3] (versus control group) is on record as “No significant differences in LVEDD, LVESD, LVEDV, or LVESV”. Further, in data set [6] (ARP1 xenograft), the Tumor growth entry is given as “grew slower than those in the control group”. The “Weight of the mice” value in data set [6] (treatment period) is reported as “the weight of the mice did not change”. Besides, the “CT-L, C-L, and T-L activities in tumor samples” value in [6] (tumors at endpoint) was “lower in the carfilzomib and D395 groups than in the control group”. Moreover, in data set [8], the “Inhibitory effect on six non-proteasomes” value is listed as “neither carfilzomib nor D395 exerted an inhibitory effect”. Further, the Incidence of cardiotoxicity in data set [13] was 5–10%.
